In PMC5951806, “Rapid labelling and covalent inhibition of intracellular native proteins using ligand-directed N-acyl-N-alkyl sulfonamide” (Nature Communications, 2018):
“And” between values parts separate entries of the source, which are not always exact repeats. Equal entries are not always repeated.

Tests used:
FR = target: FR; set-up: method as in PMID 2552922; conditions: cited from earlier work
Hsp90α = tested on: Hsp90α; set-up: method as in Supplementary References 1 and 2; conditions: reported for Hsp90α; ref Supplementary References 1 and 2; cited from earlier work
endogenous Hsp90 = experiment: Hsp90 labelling with 11 in live HeLa cells in the presence of competitive Hsp90 inhibitors; conditions: 11 0.5 µM, 10 µM competitive inhibitor
[1] = Evaluation of stabilities of LDNASA reagents (hydrolysis in aqueous buffer, HPLC); conditions: for fraction hydrolysed: after incubation for 48 h at 37 °C, 50 mM HEPES pH 7.2
Method: FKBP12 labelling was conducted in test tubes by incubating each NASA reagent (1–3) (10 µM) with purified recombinant (wild-type) FKBP12[13] (5 µM, Mw: 11 914 Da) at 37 °C in a buffer solution (pH 7.2). The labelling reactions were monitored by matrix-assisted desorption/ionisation time-of-flight mass spectrometry (MALDI-TOF MS). […] The intrinsic reactivity of the reagents was evaluated by the hydrolysis rate in aqueous buffer.
LDNASA 1–3 (10 μM) and internal standard (Trimethoprim, 10 μM) were incubated in HEPES buffer (50 mM, pH 7.2) at 37 °C. Samples at different time points were taken and analysed by RP-HPLC.

FKBP12 [2] = target: T1, FKBP12 (Homo sapiens, UniProt P62942); experiment: FKBP12 labelling in vitro (MALDI-TOF MS); assay type: biochemical; conditions: for FKBP12 labelling yield: 5 µM FKBP12, 10 µM reagent, pH 7.2, 37 °C
T1 construct: GST (factor Xa site) (N, cleaved yes); made in house; host or cells: E. coli BL21 Star (DE3)
T1 sequence (P62942 whole entry): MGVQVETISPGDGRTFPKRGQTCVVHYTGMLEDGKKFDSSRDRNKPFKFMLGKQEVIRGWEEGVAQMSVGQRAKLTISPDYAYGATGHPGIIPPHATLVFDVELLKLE
Source text: Recombinant human FKBP12 was obtained as described in Supplementary Methods.

eDHFR = target: T2, eDHFR (Escherichia coli, UniProt P0ABQ4); experiment: Kinetic analysis of eDHFR labelling; assay type: biochemical; conditions: for kL, labelling rate constant: eDHFR 300 nM, HEPES 1 mM pH 7.2, 37 °C, mean of triplicate ± s.d.; for kinact/KI / Kd: eDHFR, pH 7.2, 37 °C; for kinact/KI: read-out: kL/Kd, second-order rate constant; for Kd: from curve fitting of kapp vs reagent concentration
T2 construct: thioredoxin (N, cleaved yes); made in house; host or cells: E. coli Top10
T2 sequence (P0ABQ4 whole entry): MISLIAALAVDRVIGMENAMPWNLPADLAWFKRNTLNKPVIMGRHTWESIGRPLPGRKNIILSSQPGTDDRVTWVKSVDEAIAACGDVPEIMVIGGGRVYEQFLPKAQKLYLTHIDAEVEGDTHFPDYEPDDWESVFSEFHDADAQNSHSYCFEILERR

endogenous FKBP12 = target: T3, endogenous FKBP12 (Mus musculus, UniProt P26883); experiment: Chemical labelling of endogenous FKBP12 in C2C12 cells; assay type: cell-based; conditions: live C2C12 cells, 1 µM
T3 construct: endogenous FKBP12 inside live cells was specifically modified with biotin; endogenous in cells; host or cells: C2C12 mouse myoblast cells (ATCC)
T3 sequence (P26883 whole entry): as the sequence (P62942 whole entry) above, with M50T, T76I, P79S counted along it
Method: We then conducted intracellular endogenous FKBP12 labelling. Mouse myoblast C2C12 cells were incubated in culture medium containing 1 for 10–120 min at 37 °C. The cells were lysed and analysed by western blotting. […] Although the reaction rate was slightly slower than that of the in vitro experiments, probably because of the low membrane-permeability of 1, it should be noted that the labelled band was detectable after just 10 min incubation with 1, highlighting the rapid kinetics of LDNASA chemistry.
Mouse myoblast C2C12 cells (ATCC) (2.0 × 10^5 cells) were cultured in Dulbecco’s modified Eagle’s medium (DMEM) supplemented with 10% foetal bovine serum (FBS, Gibco), penicillin (100 units/ml), streptomycin ([…]), and amphotericin B (250 ng/ml), and incubated in a 5% CO2 humidified chamber at 37 °C. The cells were then incubated in FBS-free DMEM containing reagent (1 μM) at 37 °C for 120 min. As control experiments, the labelling was conducted in the presence of Rapamycin (10 μM). For western blot analysis, after washing twice with PBS, the cells were lysed with RIPA buffer (pH 7.4, 25 mM Tris–HCl, 150 mM NaCl, 0.1% SDS, 1% Nonidet P-40, 0.25% deoxycholic acid) containing 1% protease inhibitor cocktail set III (Calbiochem). […] The samples were subjected to SDS-PAGE and electro-transferred onto an Immun-Blot PVDF membrane (Bio-Rad). The labelled FKBP12 was detected by chemiluminescence analysis using Streptavidin-HRP conjugate, rabbit anti-FKBP12 antibody (Abcam, ab2918, 1:1000) and anti-rabbit IgG-HRP conjugate (CST, #7074 S, 1:5000).
Supplementary Figure 11 Quantification of labelling yields of endogenous FKBP12 in C2C12 cells. After C2C12 cells were incubated with LDNAS A 1 (1 µM) for 1 h, the cells were washed twi ce with PBS and l ys ed with R IPA buffer (pH 7.4, 25 mM Tris–HCl, 150 mM NaCl, 0.1% SDS, 1% Nonidet P-40, 0.25% deoxycholic acid) containing 1% protease inhibitor cocktail and rapamycin (10 µM) , which were aliquoted as input samples. All biotinylated proteins in the lysate were captured with Streptavidin agarose beads ( S Av -agarose, Thermo ). The flow through and elution fraction, as well as i nput samples, wer e subjected to Western blotting analysis using SAv- HRP and anti-FKBP12 antibody. Th e labelling yields were calculated by the following equation( Supplementar y Equation1) :
LLLLLLLLLLLLLLLLLL yy LLLLLLyy ( %) = IILLII LLLLII LLIIyyFFFFFFFF12 ,IIIIIIIIII – IILLII LLLLII LLIIyyFFFFFFFF12,FFFFFFFF IIhrrFFIIrr h × 100 ( 1) IILLII LLLLII LLIIyyFFFFFFFF12 ,IIIIIIIIII
Experiments were performed in triplicates (Ex.1–Ex.3), and the labelling yields of endogenous FKBP12 in C2C12 cells at 1 h with 1 were estimated to be 78 ± 2 % (mean ± standard deviation). Control, a sample without labelling; *, Nonspecific band derived from […]

FKBP12 [3] = target: T1, FKBP12; experiment: Kinetic analysis of FKBP12 labelling; assay type: biochemical; conditions: for kL, labelling rate constant: FKBP12 100 nM, HEPES pH 7.2, 37 °C, mean of triplicate ± s.d.; for Kd: from curve fitting of kapp vs reagent concentration, FKBP12, pH 7.2, 37 °C; for kinact/KI: pH 7.2, read-out: kL/Kd, second-order rate constant
Source text: With the optimal NASA reactive group in hand, we next investigated the reaction kinetics of LD chemistry in in vitro protein labelling. The labelling reaction of LD chemistry follows Eq. (1):1 P+R⇆KdPR→kLP^* where P is a native (non-labelled) protein, R is the reagent, PR is the native protein–reagent complex, P* is the labelled-protein, Kd is the dissociation constant and kL is the rate constant for the labelling process. When [R] > [P], the pseudo-first-order reaction rate (kapp) is given as follows (see Supplementary Methods)[35]:2 P+PR/P0= exp-kappt 3 kapp=kL/1+Kd∕R […]
The reaction time courses of FKBP12 labelling with various concentrations of 1 (200–2000 nM) were monitored by MALDI-TOF MS (Fig. 3b) and plotted to determine kapp using Eq. (2) (Fig. 3c). The values of kapp obtained in this manner were then plotted against the concentration of 1, which were well fitted by Eq. (3) (Fig. 3d). The labelling rate constant kL and the dissociation constant Kd of 1 were determined from curve fitting analysis to be (6.1 ± 0.6) × 10^−3 s^−1 and (2.1 ± 0.2) × 10^−7 M, respectively (the mean of triplicate ± standard deviation (s.d)) (Table 1).
The residual ratio of nonlabelled protein ([P] + [PR]/[P]0) were determined by MALDI-TOF MS (matrix: CHCA). The pseudo-first order reaction rates (kapp) were obtained by fitting the data to Eq. (2). Kinetic parameters were obtained by fitting the data to Eq. (3).
Kinetics of labelling reaction of LD chemistri es
The labelling reaction of LD chemistr y follows as Supplementary Equation (2) 3: where P is a native (non- labelled) protein, R is a reagent, PR is a native protein- reagent complex, P* is a labelled-protein, Kd is a dissociation constant, and k L is a rate constant for labelling process. Hyd r o l ys i s (deactivation) of LD reagents during the labelling process is negligible owing to these stabilities in buffer s olution (Supplementary Figure 3, also see
Supplementary R eferences 4–6) . The equations to be solved for the rate of labelling reaction […]
The solution of the equat ions is
According to the Supplementar y Equation (4), the k L and Kd values were obtained from the […]
Preparation of purif ied FKB P12

FKBP12 [4] = target: T1, FKBP12; experiment: FKBP12 labelling in HeLa cell lysate (western blotting); assay type: biochemical; conditions: 37 °C
[5] = tested on: Hsp90-client proteins HER2, cRaf, Akt and pAkt; experiment: Western blotting of Hsp90 client proteins; conditions: SKBR3, 3 h treatment, washing, further 21 h
Method: We also examined the expression levels of client proteins of Hsp90 (Fig. 6e, f).
The cells were washed with PBS, and lysed with RIPA buffer containing 1% protease inhibitor cocktail. The lysed samples were centrifuged (15 200 × g, 10 min at 4 °C). The protein concentrations of supernatant were analysed by BCA assay, and the normalised lysates were mixed with 1/4 volume of 5 × sample buffer containing 250 mM DTT and vortexed for 1 h at room temperature.

[6] = target: N-terminal domain of Hsp90α (Homo sapiens, UniProt P07900); experiment: In vitro labelling of N-terminal domain of Hsp90α (MALDI-TOF MS); conditions: 6.4 µM protein, 10 µM 12, 37 °C; at Lys 58
Method: Aliquots at different time points were taken and then desalted using a Ziptip-C4. The modification yields were determined by MALDI-TOF MS (matrix: sinapic acid)
Reaction conditions: 6.4 µ M

intracellular Hsp90 = conditions: SKBR3 cells, pre-treated 1–10 µM for 3 h, washed, then 11 0.5 µM
Source text: The cells were washed, lysed and analysed by in-gel fluorescence imaging. […] Error bars represent s.d., n = 3

SKBR3 cells = experiment: Cell viability assay (WST-8); conditions: SKBR3, 3 h treatment, washing, further 69 h
Method: The cell viability was assessed using Cell Counting Kit-8 (Dojin).

[7] = target: N-terminal ATP binding domain of Hsp90α (Homo sapiens, UniProt P07900)
Source text: courses of the depletion of native (non- labelled ) N-terminal ATP binding domain of Hsp90α
Purified N -terminal ATP binding domain of
The pseudo- first order reaction rates (k app) were obtained by fitting the dat a to Supplementary
Equation (3). (b) The dependence of kapp upon the concentration of reagent 12. Kinetic
parameters for covalent inhibition (ki nact and Ki) were obtained by fitting the data to
Supplementary Equation (4).

SMILES: CN(Cc1cnc2nc(N)nc(N)c2n1)c1ccc(C(=O)N[C@@H](CCC(=O)O)C(=O)O)cc1 [methotrexate]
- Kd (FR): ~200 nM

SMILES: CC(C)NCCCn1c(Sc2cc(Cl)cc(Cl)c2)nc2c(N)ncnc21 [PU-WS13]
- IC50 (Hsp90α): 27000 nM
- inhibition of Hsp90 labelling by 11 (endogenous Hsp90): less potent inhibition

SMILES: CCC(C)(C)C(=O)C(=O)N1CCCC[C@H]1C(=O)O[C@H](CCc1ccc(OC)c(OC)c1)c1cccc(OCC(=O)NCCCCCNC(=O)c2ccc(S(=O)(=O)N(Cc3ccc([N+](=O)[O-])cc3[N+](=O)[O-])C(=O)CCCC[C@@H]3SCC4NC(=O)NC43)cc2)c1 (some centres unmarked) [compound 3]
- fraction hydrolysed [1]: 5%
- FKBP12 labelling yield (FKBP12 [2]; after a 2-h incubation): 17%

SMILES: CCN(CC)c1ccc2cc(C(=O)Oc3c(Br)cc(C(=O)NCCCCCNC(=O)CCCCOc4c(OC)cc(Cc5cnc(N)nc5N)cc4OC)cc3Br)c(=O)oc2c1 [compound 7]
- kL, labelling rate constant (eDHFR): (3.4 ± 0.3) × 10^−4 s^−1
- kinact/KI (eDHFR): 590 M⁻¹ s⁻¹
- Kd (eDHFR): 580 nM

SMILES: CCN(CC)c1ccc2cc(C(=O)NCCOCCOC(=O)n3cnc(CC(=O)NCCCCCNC(=O)CCCCOc4c(OC)cc(Cc5cnc(N)nc5N)cc4OC)c3)c(=O)oc2c1 [compound 6]
- kL, labelling rate constant (eDHFR): (5.8 ± 0.1) × 10^−6 s^−1
- kinact/KI (eDHFR): 11 ± 1 M⁻¹ s⁻¹
- Kd (eDHFR): 550 nM

SMILES: CCC(C)(C)C(=O)C(=O)N1CCCC[C@H]1C(=O)O[C@H](CCc1ccc(OC)c(OC)c1)c1cccc(OCC(=O)NCCCCCNC(=O)c2ccc(S(=O)(=O)N(Cc3ccc([N+](=O)[O-])cc3)C(=O)CCCC[C@@H]3SCC4NC(=O)NC43)cc2)c1 (some centres unmarked) [compound 2]
- fraction hydrolysed [1]: 5%
- FKBP12 labelling yield (FKBP12 [2]; after a 2-h incubation): 22%

SMILES: CCC(C)(C)C(=O)C(=O)N1CCCCC1C(=O)OC(CCc1ccc(OC)c(OC)c1)c1cccc(OCC(=O)N2CCN(C(=O)c3cccc(S(=O)(=O)OCCOCCOCCNC(=O)CCCCC4SCC5NC(=O)NC54)c3)CC2)c1 (centres unmarked) [compound 5, reference compound]
- endogenous FKBP12 labelling (endogenous FKBP12; <120 min): failed to label FKBP12
- kL, labelling rate constant (FKBP12 [3]): (9.6 ± 0.2) × 10^−6 s^−1
- Kd (FKBP12 [3]): 210 nM
- kinact/KI (FKBP12 [3]): 45 ± 6 M⁻¹ s⁻¹

SMILES: COc1cc(C(=O)C(=O)N2CCCCC2C(=O)NCCOCCOCC(=O)NCCCCCNC(=O)c2ccc(S(=O)(=O)N(CC#N)C(=O)CCCCC3SCC4NC(=O)NC43)cc2)cc(OC)c1OC (centres unmarked) [compound 8]
- concentration required to obtain the same signal intensity as biotinylated FKBP12 labelled by 1 (FKBP12 [4]; HeLa cell lysate with 1 µM FKBP12, 1 h, 1 at 1 µM): 20 µM
- kL, labelling rate constant (FKBP12 [3]): (7.6 ± 1.7) × 10^−3 s^−1
- kL/Kd, fold less than 1 (FKBP12 [3]; FKBP12 labelling): 392 fold
- Kd (FKBP12 [3]): 100000 nM
- kinact/KI (FKBP12 [3]): 74 ± 19 M⁻¹ s⁻¹

SMILES: N#CCN(C(=O)CCCC(=O)NCCCn1c(Sc2cc3c(cc2I)OCO3)nc2c(N)ncnc21)S(=O)(=O)c1ccccc1 [compound 12]
- Hsp90-client protein levels after washout [5]: decrease in Hsp90-client proteins was also observed
- covalent attachment of the PU-H71 ligand to Hsp90 N-terminal domain [6]: quantitative and single covalent attachment
- blocking of fluorescent labelling of Hsp90 by 11 after washout (intracellular Hsp90): strongly inhibited the fluorescent labelling
- cytotoxicity / growth inhibitory effect after washout (SKBR3 cells): clearly showed a growth inhibitory effect
- Ki [7]: 62 nM
- kinact/KI ([7]; pH 7.2, read-out: second-order rate constant of the covalent inhibition): 29000 M⁻¹ s⁻¹

SMILES: CCC(C)(C)C(=O)C(=O)N1CCCC[C@H]1C(=O)O[C@H](CCc1ccc(OC)c(OC)c1)c1cccc(OCC(=O)NCCCCCNC(=O)c2ccc(S(=O)(=O)N(CC#N)C(=O)CCCC[C@@H]3SCC4NC(=O)NC43)cc2)c1 (some centres unmarked) [compound 1]
- ratio of unspecific to specific labelling (FKBP12 [4]; HeLa cell lysate with 1 µM FKBP12, reagent 1–20 µM, 1 h): less than 0.15
- half-life at 10 µM ([1]; HEPES buffer, pH 7.2): 43 h
- incubation time after which the labelled band was detectable (endogenous FKBP12): 10 min
- labelling yield of endogenous FKBP12 (endogenous FKBP12; 60 min, 37 °C): 78 ± 2% and 78%
- labelling yield of endogenous FKBP12 (endogenous FKBP12; 120 min): almost quantitative
- kL, labelling rate constant (FKBP12 [3]): (6.1 ± 0.6) × 10^−3 s^−1
- kL, fold higher than that of LDT 5 (FKBP12 [3]; FKBP12 labelling): 635 fold
- Kd (FKBP12 [3]): 210 nM
- kinact/KI (FKBP12 [3]): 29000 M⁻¹ s⁻¹
- FKBP12 labelling yield (FKBP12 [2]; within 15 min): 98%
- initial rate, fold faster than 2 (FKBP12 [2]; FKBP12 labelling, 1 versus 2): 49 fold
- initial rate, fold faster than 3 (FKBP12 [2]; FKBP12 labelling, 1 versus 3): 105 fold
- FKBP12 labelling in the presence of rapamycin (competitive ligand) (FKBP12 [2]; in vitro, with rapamycin): completely abolished
